These compounds were tested on NBD1 (assay: Aggregation analysis of NBD1 thermal stability by differential static light scattering (DSLS)). Details: compound at 100 μM; ΔTagg versus DMSO control.
Type: binding, Human
Procedure: Purified recombinant NBD1 was produced using previously described methods (A. Schmidt, J. L. Mendoza, P. J. Thomas (2011) Biochemical and Biophysical Approaches to Probe CFTR Structure (365-376) M. D. Amaral, K. Kunzelmann (eds.), Cysic Fibrosis, Methods in Molecular Biology 741, Springer Science+Business Media). The effect of test compounds on thermal stability of NBD1 was evaluated by differential static light scattering (DSLS) using the Harbinger Stargazer-384 instrument (Epiphyte Three, Toronto, Canada). Test compounds were dissolved and diluted to desired concentrations in 100% DMSO. The compounds or DMSO controls (100 nL) were stamped into wells of a […] low volume optical plate (Corning Inc., Corning, NY) using the Echo 555 acoustic liquid handler (Labcyte Inc., San Jose, CA).
NBD1 protein was diluted to 0.2 mg/ml in S200 buffer (50 mM Tris-HCl, 150 mM NaCl, 5 mM MgCl2, 2 mM ATP, 2 mM DTT, pH7.6) containing 1% glycerol. 10 uL of protein solution was aliquoted into the 384-well plate harboring the test compounds and 10 uL mineral oil was overlayed onto the protein solution, using the epMotion robotic liquid handler (Eppendorf North America, Hauppauge, NY). After placing into the Stargazer instrument, the plate was heated at 1° C. per minute to 70° C. Images were captured from 25° C. to 70° C. every 0.5° C. At the end of the experiment run, instrument software integrated image files and analyzed data automatically. A […] regression curve was generated for each well, representing the increase in light scattering over time. A temperature of aggregation (Tagg) was calculated based on the inflection point of the curve. To better compare data across experiments the average Tagg for DMSO control wells was calculated and subtracted from values for wells containing compounds to obtain a “ΔTagg” value. These ΔTagg values reflect stabilizing efficacy of the compounds.
`CN(C)CCNC(c1ccccc1)c1c[nH]c(-c2cccc(Oc3ccc4[nH]ccc4n3)c2)n1` (stereo not shown) [Example 54, N1-((2-(3-((1H-pyrrolo[3,2-b]pyridin-5-yl)oxy)phenyl)-1H-imidazol-5-yl)(phenyl)methyl)-N2,N2-dimethylethane-1,2-diamine] was tested, and the “DSLS NBD1/3D Human Stability delta-T (° C.) @ 100 (μM)” value (from here on “DSLS NBD1/3D Human Stability delta-T”) was “B (4-8° C.)”. For `CC(C)(c1ccccc1)c1cnc(-c2cc(Oc3c(F)cc4[nH]ccc4c3CC(=O)O)ccc2F)[nH]1` [Example 4, 2-(6-Fluoro-5-(4-fluoro-3-(5-(2-phenylpropan-2-yl)-1H-imidazol-2-yl)phenoxy)-1H-indol-4-yl)acetic acid], the “DSLS NBD1/3D Human Stability delta-T” value was “A (T ≥8° C.)”. `CC(O)(c1ccccc1)c1cnc(-c2cc(Oc3c(F)cc4[nH]ccc4c3CCC(=O)O)ccc2F)[nH]1` (stereo not shown) [Example 71, 3-(6-Fluoro-5-(4-fluoro-3-(5-(1-hydroxy-1-phenylethyl)-1H-imidazol-2-yl)phenoxy)-1H-indol-4-yl)propanoic acid] was tested, and the “DSLS NBD1/3D Human Stability delta-T” value was “A (T ≥8° C.)”. For `CC(O)(c1ccccc1)c1cnc(-c2cccc(Oc3ccc4[nH]ccc4c3S(C)(=O)=O)c2)[nH]1` (racemic) [Example 63, 1-(2-(3-((4-(methylsulfonyl)-1H-indol-5-yl)oxy)phenyl)-1H-imidazol-5-yl)-1-phenylethan-1-ol], the “DSLS NBD1/3D Human Stability delta-T” value was “A (T ≥8° C.)”. With `c1ccc(Cc2coc(-c3cccc(Oc4ccc5[nH]ccc5c4)c3)n2)cc1` [Example 47, 2-(3-((1H-Indol-5-yl)oxy)phenyl)-4-benzyloxazole] the “DSLS NBD1/3D Human Stability delta-T” value was “C (≤4° C.)”. `CC(=O)NCc1c(Oc2cccc(-c3nnc(Cc4ccccc4)[nH]3)c2)ccc2[nH]ccc12` [Example 50, N-((5-(3-(5-Benzyl-4H-1,2,4-triazol-3-yl)phenoxy)-1H-indol-4-yl)methyl)acetamide] was tested, and the “DSLS NBD1/3D Human Stability delta-T” value was “B (4-8° C.)”. For `NC(=O)Cc1c(Oc2cccc(-c3nnc(Cc4ccccc4)[nH]3)c2)ccc2[nH]ccc12` [Example 51, 2-(5-(3-(5-Benzyl-4H-1,2,4-triazol-3-yl)phenoxy)-1H-indol-4-yl)acetamide], the “DSLS NBD1/3D Human Stability delta-T” value was “B (4-8° C.)”. With `Nc1cnc(-c2nnc(Cc3ccccc3)[nH]2)cc1Oc1ccc2[nH]ccc2c1` [Example 44, 4-((1H-Indol-5-yl)oxy)-6-(5-benzyl-4H-1,2,4-triazol-3-yl)pyridin-3-amine] the “DSLS NBD1/3D Human Stability delta-T” value was “B (4-8° C.)”. With `COCCS(=O)(=O)c1c(Oc2cccc(-c3ncc(C(C)(O)c4ccccc4)[nH]3)c2)c(F)cc2[nH]ccc12` (stereo not shown) [Example 61, 1-(2-(3-((6-Fluoro-4-((2-methoxyethyl)sulfonyl)-1H-indol-5-yl)oxy)phenyl)-1H-imidazol-5-yl)-1-phenylethan-1-ol] the “DSLS NBD1/3D Human Stability delta-T” value was “B (4-8° C.)”. For `COC(=O)c1c(Oc2cccc(-c3ncc(C(C)(O)c4ccccc4)[nH]3)c2)c(F)cc2[nH]ccc12` (stereo not shown) [Example 7, Methyl 6-fluoro-5-(3-(5-(1-hydroxy-1-phenylethyl)-1H-imidazol-2-yl)phenoxy)-1H-indole-4-carboxylate], the “DSLS NBD1/3D Human Stability delta-T” value was “B (4-8° C.)”. For `CC(C)NCc1c(Oc2cccc(-c3nnc(Cc4ccccc4)[nH]3)c2)ccc2[nH]ccc12` [Example 21, N-((5-(3-(5-Benzyl-4H-1,2,4-triazol-3-yl)phenoxy)-1H-indol-4-yl)methyl)propan-2-amine 2,2,2-trifluoroacetate], the “DSLS NBD1/3D Human Stability delta-T” value was “B (4-8° C.)”. `O=C(O)CC(c1cccc(-c2nnc(Cc3ccccc3)[nH]2)c1)c1ccc2[nH]ccc2c1` (stereo not shown) [Example 37, 3-(3-(5-Benzyl-4H-1,2,4-triazol-3-yl)phenyl)-3˜(1H-indol-5-yl)propanoic acid] was tested, and the “DSLS NBD1/3D Human Stability delta-T” value was “C (≤4° C.)”. In the case of `CC(=O)NCc1c(Oc2cccc(-c3ncc(C(O)c4ccccc4)[nH]3)c2)ccc2[nH]ccc12` (stereo not shown) [Example 18, N-((5-(3-(5-(Hydroxy(phenyl)methyl)-1H-imidazol-2-yl)phenoxy)-1H-indol-4-yl)methyl)acetamide], the “DSLS NBD1/3D Human Stability delta-T” value is reported as “A (T ≥8° C.)”. `OCc1c(Oc2cccc(-c3nc(Cc4ccccc4)cs3)c2)ccc2[nH]ccc12` [Example 48, (5-(3-(4-Benzylthiazol-2-yl)phenoxy)-1H-indol-4-yl)methanol] was tested, and the “DSLS NBD1/3D Human Stability delta-T” value was “C (≤4° C.)”. For `CS(=O)(=O)c1c(Oc2ccc(F)c(-c3nc(C(OCC(=O)O)c4ccccc4)c[nH]3)c2)c(F)cc2[nH]ccc12` (stereo not shown) [Example 73, 2-((2-(2-Fluoro-5-((6-fluoro-4-(methylsulfonyl)-1H-indol-5-yl)oxy)phenyl)-1H-imidazol-4-yl)(phenyl)methoxy)acetic acid], the “DSLS NBD1/3D Human Stability delta-T” value was “A (T ≥8° C.)”. `OCc1c(Oc2cccc(-c3ncn(Cc4ccccc4)n3)c2)ccc2[nH]ccc12` [Example 23, (5-(3-(1-Benzyl-1H-1,2,4-triazol-3-yl)phenoxy)-1H-indol-4-yl)methanol] was tested, and the “DSLS NBD1/3D Human Stability delta-T” value was “B (4-8° C.)”. In the case of `O=C(O)c1c(Oc2cccc(-c3nnc(Cc4ccccc4)[nH]3)c2)ccc2[nH]ccc12` [Example 19, 5-(3-(5-Benzyl-4H-1,2,4-triazol-3-yl)phenoxy)-1H-indole-4-carboxylic acid], the “DSLS NBD1/3D Human Stability delta-T” value is reported as “B (4-8° C.)”. For `CN1C(=O)SC(Cc2c(Oc3ccc(F)c(-c4nc(C(C)(O)c5ccccc5)c[nH]4)c3)c(F)cc3[nH]ccc23)C1=O` (stereo not shown) [Example 70, 5-((6-fluoro-5-(4-fluoro-3-(4-(1-hydroxy-1-phenylethyl)-1H-imidazol-2-yl)phenoxy)-1H-indol-4-yl)methyl)-3-methylthiazolidine-2,4-dione], the “DSLS NBD1/3D Human Stability delta-T” value was “B (4-8° C.)”. In the case of `Nc1ccc(-c2n[nH]c(Cc3ccccc3)n2)cc1Oc1ccc2[nH]ccc2c1` [Example 49, 2-((1H-Indol-5-yl)oxy)-4-(5-benzyl-1H-1,2,4-triazol-3-yl)aniline], the “DSLS NBD1/3D Human Stability delta-T” value is reported as “B (4-8° C.)”. With `NC(=O)CC(c1cccc(-c2nnc(Cc3ccccc3)[nH]2)c1)c1ccc2[nH]ccc2c1` (stereo not shown) [Example 38, 3-(3-(5-Benzyl-4H-1,2,4-triazol-3-yl)phenyl)-3-(1H-indol-5-yl)propanamide] the “DSLS NBD1/3D Human Stability delta-T” value was “C (≤4° C.)”. For `[O-][S+](c1ccccc1)c1cnc(-c2cccc(Oc3ccc4[nH]ccc4c3)c2)[nH]1` (stereo not shown) [Example 31, 5-(3-(5-(Phenylsulfinyl)-1H-imidazol-2-yl)phenoxy)-1H-indole], the “DSLS NBD1/3D Human Stability delta-T” value was “B (4-8° C.)”. In the case of `CC(O)(c1ccccc1)c1cnc(-c2cccc(Sc3ccc4[nH]ccc4c3)c2)[nH]1` (stereo not shown) [Example 39, 1-(2-(3-((1H-Indol-5-yl)thio)phenyl)-1H-imidazol-5-yl)-1-phenylethan-1-ol], the “DSLS NBD1/3D Human Stability delta-T” value is reported as “C (≤4° C.)”. With `O=C(O)Cc1c(Oc2cccc(-c3nnc(Cc4ccccc4)[nH]3)c2)ccc2[nH]ccc12` [Example 11, 2-(5-(3-(5-Benzyl-4H-1,2,4-triazol-3-yl)phenoxy)-1H-indol-4-yl)acetic acid] the “DSLS NBD1/3D Human Stability delta-T” value was “B (4-8° C.)”. In the case of `CS(=O)(=O)c1c(Oc2cccc(-c3ncc(C(O)c4ccccc4)[nH]3)c2)c(F)cc2[nH]ccc12` (stereo not shown) [Example 14, (2-(3-((6-Fluoro-4-(methylsulfonyl)-1H-indol-5-yl)oxy)phenyl)-1H-imidazol-5-yl)(phenyl)methanol], the “DSLS NBD1/3D Human Stability delta-T” value is reported as “A (T ≥8° C.)”. For `Cc1c(Oc2ccc(F)c(-c3ncc(C(C)(O)c4ccccc4)[nH]3)c2)c(F)cc2[nH]cc(CC(=O)O)c12` (stereo not shown) [Example 74, 2-(6-Fluoro-5-(4-fluoro-3-(5-(1-hydroxy-1-phenylethyl)-1H-imidazol-2-yl)phenoxy)-4-methyl-1H-indol-3-yl)acetic acid], the “DSLS NBD1/3D Human Stability delta-T” value was “B (4-8° C.)”.

Source: patent publication US20240239784A1, “INDOLE COMPOUNDS AND METHODS OF USE” (GENZYME CORPORATION, priority 2021, published 2024)
